Holding throughout (format): cell-based, human
The test system of one test is GBM cells. Kind of test: GBM cell death, trypan blue counting. Conditions: for cell death caused by DGAT1 inhibition (rescue): co-treatment with DGAT1 inhibition (A-922500 20 μg/ml, 3 days), U251.
The next test has as its system GBM cells (U251). As to the kind of experiment: ROS detection with CellROX Deep Red. The conditions noted are these: co-treatment (NAC 1 mM; ETO 6 μM) with DGAT1 inhibition. As to the method:
(A, B) Transmission electron microscopy (TEM) analysis of the mitochondrial morphology in GBM cells (U251) treated with the DGAT1 inhibitor A-922500 (20 μg/ml) or DGAT2 inhibitor PF-06424439 (20 μg/ml) for 24 hr and shown in a or infected with shRNA-expressing lentivirus against DGAT1 for 48 hr and shown in b. Scale bar, 500 nm. Mitochondria are indicated by red arrows. Mitochondria length and loss of cristae (%) were quantified by ImageJ over 100 mitochondria in each group (mean±SEM). Statistical significance was determined by one-way ANOVA. * P<0.0001. (C, D) Representative fluorescence images of LDs (green) and mitochondria (red) in U251 cells treated with DGAT1 or DGAT2 inhibitor and shown in c or shRNA in (D) as in panels (A, B). […] The percentage of cells with tubular or fragmented mitochondria was quantified by ImageJ in more than 100 cells (mean±SEM). Statistical significance was determined by one-way ANOVA. * P<0.001. […] Lower panels show the quantification of relative basal and maximal OCR change (details please see Methods). […] Basal OCR was determined as OCR before oligomycin subtract OCR after rotenone addition, and maximal OCR was determined as OCR after FCCP subtract OCR after rotenone addition. Statistical significance was determined by one-way ANOVA. * P<0.0001. […] ROS were detected with CellROX Deep Red, and mitochondria were stained with MitoTracker Green. […]

In a further test the test system is liver cancer cells. As to the kind of experiment: Liver cancer cell death with DGAT1 and DGAT2 inhibitors alone or in combination. As to the method: MHCC97L 6×10^4 12 well plate, treated at 24 hours with 1% FBS DMEM with DGAT1 and DGAT2 inhibitors. Picture taken on day 4.
HEPG2 6×10^4 12 well plate, treated at 24 hours with 1% FBS DMEM with DGAT1 and DGAT2 inhibitors. Picture taken on day 4.
HeG2 8×10^4 12 well plate, treated at 24 hours with 1% FBS DMEM with DGAT1 and DGAT2 inhibitors. Picture taken on day 4.
Huh7 4×10^4 12-well plate, treated at 24 hours with 1% FBS DMEM with DGAT1 and DGAT2 inhibitors. Picture taken on day 4.
Hep3B 6×10^4 12-well plate, treated at 24 hours with 1% FBS DMEM with DGAT1 and DGAT2 inhibitors. Picture taken on day 4.
Huh7 6×10^4 12-well plate, treated at 24 hours with 1% FBS DMEM with DGAT1 and DGAT2 inhibitors. Picture taken on day 4.

Where [1] appears, read: DGAT1 inhibitor in combination with DGAT2 inhibitor.

These results are taken from US20240148679A1, “METHODS AND COMPOSITIONS RELATED TO TREATMENT AND PREVENTION OF CANCER BY INHIBITION OF DGAT1 AND DGAT2” (Ohio State Innovation Foundation, priority 2019, published 2024).

Molecules are shown by their SMILES. “Also recorded” adds a separate entry of the source.

In the case of `Cc1cc(=O)oc2c(C=O)c(O)ccc12` [4μ8C], the “cell death caused by DGAT1 inhibition (rescue)” value in the test on GBM cells is on record as “did not exert any rescue effects; also recorded: No rescue effects”. `CCOC(=O)[C@@]1(CCCCCCOc2ccc(Cl)cc2)CO1` [ETO]: in the test with GBM cells, the “cell death caused by DGAT1 inhibition (rescue)” value is given as “significantly reduced”. Moreover, the “ROS caused by DGAT1 inhibition” value in the test with GBM cells (U251) was “significantly reduced”.

On to `Cc1cccc(CC(=O)N2CCc3c2ccc(-c2cn(C)c4ncnc(N)c24)c3F)n1` [GSK2656157], for which, in the test with GBM cells, the “cell death caused by DGAT1 inhibition (rescue)” value is given as “did not exert any rescue effects; also recorded: No rescue effects”. In the case of `N#Cc1ccc(Oc2ccc(/C=C3\SC(=NCCc4ccccn4)NC3=O)cc2F)c(Br)c1` [JNJ DGAT2-A], the “liver cancer cell death” value with liver cancer cells (setting [1]) was “effective to kill liver cancer cells”; with liver cancer cells (each single inhibitor), “no ability to induce liver cancer cell death”. On to `CC(=O)N[C@@H](CS)C(=O)O` [NAC, N-acetyl-cysteine], for which the “acylcarnitine-induced GBM cell death” value with GBM cells (NAC 1 mM with acylcarnitines 20 μM, 2 days) was “significantly reduced”. For the same compound, the “cell death caused by DGAT1 inhibition (rescue)” value with GBM cells is on record as “significantly decreased”. Moreover, the “ROS caused by DGAT1 inhibition” value in the test on GBM cells (U251) is reported as “significantly decreased”. As for `O=C(O)C[C@H]1CC[C@H](c2ccc(-c3ccc(Nc4ccc(C(F)(F)F)nc4)cn3)cc2)CC1` [Pradigastat], the “liver cancer cell death” value with liver cancer cells (setting [1]) is “effective to kill liver cancer cells”; in the test with liver cancer cells (each single inhibitor), “no ability to induce liver cancer cell death”. In the case of `CCCCCCC(=O)CCCCCC/C=C/C[C@@H](O)[C@H](O)[C@@](N)(CO)C(=O)O` [myriocin], the “cell death caused by DGAT1 inhibition (rescue)” value in the test with GBM cells is given as “no rescue effects; also recorded: does not rescue cell death”.
